The conditions of data set [1]: human, serum.
Data set [2] can be described thus: Highest frequency of acute liver toxicity observed during clinical trials, expressed as a percentage. [column '% AIGUE' in source]. The note with it: human.
For data set [3] the following is noted: human, serum, 4383 h.
Data set [4] can be described thus: Highest frequency of moderate liver toxicity observed during clinical trials, expressed as a percentage. [column '% BIOL' in source]. The note with it: human.
The conditions of data set [5]: human.
For data set [6] the following is noted: human. This is another data set of the same source.
For data set [7] the following is noted: human. This is another data set of the same source.
The conditions of data set [8]: human, serum. This is another data set of the same source.
The conditions of data set [9]: human. This is another data set of the same source.
For data set [10] the following is noted: human. The source holds these as a separate data set.
For data set [11] the following is noted: human. The source holds these as a separate data set.
For data set [12] the following is noted: human. This is another data set of the same source.
A short description of data set [13]: Times to onset, minimal and maximal, observed in the indexed observations. [column 'DELAI' in source]. The note with it: human.
For data set [14] the following is noted: human. This is another data set of the same source.
For data set [15] the following is noted: human. This is another data set of the same source.

Each structure is given as a SMILES string.
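Throughout, for Hepatotoxicity (association with vascular disease): count of indexed literature references reporting vascular liver injury in humans, e.g. peliosis hepatitis, hepatic veno-occlusive disease or Budd-Chiari syndrome.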
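Throughout, for Hepatotoxicity (benign tumour): value is a count of indexed literature references citing a benign tumour confirmed by histopathology.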
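Throughout, for Hepatotoxicity (choleostasis): human cholestatic liver injury, shown by histopathology or by peak ALT or AST elevation over alkaline phosphatase ratio below 2, value counts indexed literature reports.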
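Throughout, for Hepatotoxicity (chronic liver disease): chronic liver injury confirmed by histopathology or persistently raised serum aminotransferase activity beyond 6 months, value given as the count of indexed literature references.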
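Throughout, for Hepatotoxicity (cirrhosis): value is a count of indexed literature references reporting cirrhosis confirmed by histopathology.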
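Throughout, for Hepatotoxicity (cytolytic): human cytolytic liver injury, shown by histopathology or by a ratio above 5 of peak ALT or AST elevation to alkaline phosphatase elevation, value counts indexed references.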
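Throughout, for Hepatotoxicity (granulomatous hepatitis): value is a count of indexed literature references reporting granulomatous liver disease confirmed by histopathology.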
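Throughout, for Hepatotoxicity (malignant tumour): malignant tumour confirmed by histopathology, value gives the count of indexed literature references reporting it.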
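Throughout, for Hepatotoxicity (severe hepatitis): human clinical data: severe hepatitis, meaning potentially life-threatening liver failure or clinically observed cases, the value counts how many indexed literature references report it.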
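Throughout, for Hepatotoxicity (steatosis): steatosis confirmed by histopathology, value is the count of indexed references.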

Turning to `O=C(COc1ccc(Cl)cc1)N1CCN(Cc2ccc3c(c2)OCO3)CC1` [FIPEXIDE], the “Hepatotoxicity (acute)” value in [1] came to 4; in data set [2] it was 0%. Also, in data set [3], the “Hepatotoxicity (chronic liver disease)” value was 0. Moreover, the “Hepatotoxicity (moderate)” value in data set [4] turned out to be 0%; in [8] it was 0. Further, the “Hepatotoxicity (association with vascular disease)” value in data set [5] was determined as 0. Further, the “Hepatotoxicity (severe hepatitis)” value in [6] is given as 1. Also, the “Hepatotoxicity (benign tumour)” value in [7] amounted to 0. The “Hepatotoxicity (granulomatous hepatitis)” value in data set [9] was 0. Further, the “Hepatotoxicity (choleostasis)” value in data set [10] turned out to be 0. Besides, in data set [11], the “Hepatotoxicity (malignant tumour)” value worked out at 0. Further, in data set [12], the “Hepatotoxicity (cirrhosis)” value turned out to be 0. The “Hepatotoxicity (time to onset)” value in [13] is reported as 15 days - 3 months. Further, the “Hepatotoxicity (steatosis)” value in data set [14] stood at 0. The “Hepatotoxicity (cytolytic)” value in [15] is reported as 3.
`CCC1(C)CC(=O)NC1=O` (stereo not given) [ETHOSUXIMIDE]: the “Hepatotoxicity (acute)” value in data set [1] turned out to be 0; in data set [2] it was 0%. Moreover, the “Hepatotoxicity (chronic liver disease)” value in [3] came out at 0. Also, the results for the “Hepatotoxicity (moderate)” value in [4] and in [8] were 0% and 2, respectively. In addition, in data set [5], the “Hepatotoxicity (association with vascular disease)” value is listed as 0. The “Hepatotoxicity (severe hepatitis)” value in data set [6] is listed as 0. Also, the “Hepatotoxicity (benign tumour)” value in [7] was found to be 0. Also, the “Hepatotoxicity (granulomatous hepatitis)” value in data set [9] was found to be 0. Further, in data set [10], the “Hepatotoxicity (choleostasis)” value turned out to be 0. Besides, the “Hepatotoxicity (malignant tumour)” value in data set [11] is given as 0. In data set [12], the “Hepatotoxicity (cirrhosis)” value came out at 0. For the same compound, in [13], the “Hepatotoxicity (time to onset)” value is listed as 1 month. Also, the “Hepatotoxicity (steatosis)” value in data set [14] stood at 0. Besides, the “Hepatotoxicity (cytolytic)” value in data set [15] is listed as 0.
As to `CCCC1O[C@@H]2C[C@H]3[C@@H]4CCC5=CC(=O)C=C[C@]5(C)[C@H]4[C@@H](O)C[C@]3(C)[C@]2(C(=O)CO)O1` (stereo not given in full) [BUDESONIDE], the results for the “Hepatotoxicity (acute)” value in data set [1] and in [2] were 1 and 0%, respectively. In data set [3], the “Hepatotoxicity (chronic liver disease)” value is on record as 0. Also, the “Hepatotoxicity (moderate)” value came to 0% in [4] and 0 in [8]. In [5], the “Hepatotoxicity (association with vascular disease)” value was found to be 0. Further, the “Hepatotoxicity (severe hepatitis)” value in data set [6] was 0. In addition, in data set [7], the “Hepatotoxicity (benign tumour)” value amounted to 0. Also, the “Hepatotoxicity (granulomatous hepatitis)” value in data set [9] came to 0. The “Hepatotoxicity (choleostasis)” value in data set [10] is 0. The “Hepatotoxicity (malignant tumour)” value in data set [11] was 0. Besides, in data set [12], the “Hepatotoxicity (cirrhosis)” value worked out at 0. For the same compound, in data set [13], the “Hepatotoxicity (time to onset)” value turned out to be 19 days. Further, the “Hepatotoxicity (steatosis)” value in data set [14] is given as 0. The “Hepatotoxicity (cytolytic)” value in [15] is 1.
With `O=C1CC2(CCCC2)CC(=O)N1CCCCN1CCN(c2ncccn2)CC1` [BUSPIRONE], the figures for the “Hepatotoxicity (acute)” value in data set [1] and in data set [2] were 1 and 0%, respectively. Besides, the “Hepatotoxicity (chronic liver disease)” value in data set [3] stood at 0. Also, the “Hepatotoxicity (moderate)” value came out at 5.3% in [4] and 2 in [8]. Further, the “Hepatotoxicity (association with vascular disease)” value in data set [5] stood at 0. For the same compound, the “Hepatotoxicity (severe hepatitis)” value in data set [6] is given as 0. In addition, in data set [7], the “Hepatotoxicity (benign tumour)” value is 0. Moreover, in [9], the “Hepatotoxicity (granulomatous hepatitis)” value is 0. The “Hepatotoxicity (choleostasis)” value in data set [10] is 1. The “Hepatotoxicity (malignant tumour)” value in [11] was found to be 0. Also, the “Hepatotoxicity (cirrhosis)” value in data set [12] is listed as 0. Also, in data set [13], the “Hepatotoxicity (time to onset)” value amounted to 26 days. Further, the “Hepatotoxicity (steatosis)” value in [14] came out at 0. Further, the “Hepatotoxicity (cytolytic)” value in data set [15] worked out at 1.
Consider `C=CC(N)CCC(=O)O` (stereo not given) [VIGABATRIN], for which the “Hepatotoxicity (acute)” value in [1] is 2; in data set [2] it was 0%. Besides, the “Hepatotoxicity (chronic liver disease)” value in [3] is reported as 0. In addition, the “Hepatotoxicity (moderate)” value in data set [4] is listed as 13.3%; in data set [8], 3. Further, the “Hepatotoxicity (association with vascular disease)” value in data set [5] was 0. In data set [6], the “Hepatotoxicity (severe hepatitis)” value is reported as 1. For the same compound, the “Hepatotoxicity (benign tumour)” value in [7] worked out at 0. Further, the “Hepatotoxicity (granulomatous hepatitis)” value in data set [9] is reported as 0. Besides, the “Hepatotoxicity (choleostasis)” value in data set [10] is 0. Also, the “Hepatotoxicity (malignant tumour)” value in data set [11] is recorded as 0. In addition, in data set [12], the “Hepatotoxicity (cirrhosis)” value turned out to be 0. The “Hepatotoxicity (time to onset)” value in data set [13] is on record as 9 months. In data set [14], the “Hepatotoxicity (steatosis)” value was 0. Also, the “Hepatotoxicity (cytolytic)” value in data set [15] is reported as 2.
Turning to `CSc1nc2cc(Cl)c(Oc3cccc(Cl)c3Cl)cc2[nH]1` [TRICLABENDAZOLE], the “Hepatotoxicity (acute)” value in data set [1] stood at 1; in data set [2] it was 0.7%. In [3], the “Hepatotoxicity (chronic liver disease)” value is 0. The “Hepatotoxicity (moderate)” value in [4] is listed as 0%; in data set [8] it was 0. For the same compound, the “Hepatotoxicity (association with vascular disease)” value in [5] turned out to be 0. Also, the “Hepatotoxicity (severe hepatitis)” value in data set [6] worked out at 0. Further, the “Hepatotoxicity (benign tumour)” value in data set [7] turned out to be 0. Also, in data set [9], the “Hepatotoxicity (granulomatous hepatitis)” value came to 0. The “Hepatotoxicity (choleostasis)” value in [10] was 1. The “Hepatotoxicity (malignant tumour)” value in [11] is on record as 0. Besides, the “Hepatotoxicity (cirrhosis)” value in [12] stood at 0. In addition, in data set [13], the “Hepatotoxicity (time to onset)” value is reported as 3 days. Also, the “Hepatotoxicity (steatosis)” value in data set [14] is 0. Also, the “Hepatotoxicity (cytolytic)” value in [15] turned out to be 0.
As to `CCCCCNCC(N)=O` [MILACEMIDE], the figures for the “Hepatotoxicity (acute)” value in data set [1] and in data set [2] were 1 and 0%, respectively. Besides, the “Hepatotoxicity (chronic liver disease)” value in [3] came out at 0. Also, the “Hepatotoxicity (moderate)” value in [4] is 70%; in [8] it was 3. Besides, the “Hepatotoxicity (association with vascular disease)” value in data set [5] is on record as 0. In addition, the “Hepatotoxicity (severe hepatitis)” value in [6] came out at 0. The “Hepatotoxicity (benign tumour)” value in [7] was determined as 0. Besides, in data set [9], the “Hepatotoxicity (granulomatous hepatitis)” value was 0. In data set [10], the “Hepatotoxicity (choleostasis)” value is reported as 1. The “Hepatotoxicity (malignant tumour)” value in data set [11] turned out to be 0. The “Hepatotoxicity (cirrhosis)” value in [12] is 0. The “Hepatotoxicity (time to onset)” value in data set [13] was 3 weeks - 4 weeks. For the same compound, in data set [14], the “Hepatotoxicity (steatosis)” value was determined as 0. In addition, the “Hepatotoxicity (cytolytic)” value in [15] is on record as 1.
Take `N[C@@H](Cc1ccc(O)c(O)c1)C(=O)O` [LEVODOPA]: the “Hepatotoxicity (acute)” value in data set [1] was 4; in data set [2], 3.3%. In data set [3], the “Hepatotoxicity (chronic liver disease)” value stood at 0. For the same compound, the “Hepatotoxicity (moderate)” value in data set [4] is reported as 9%; in [8], 1. The “Hepatotoxicity (association with vascular disease)” value in data set [5] came to 0. Besides, the “Hepatotoxicity (severe hepatitis)” value in data set [6] was found to be 0. Further, in data set [7], the “Hepatotoxicity (benign tumour)” value is given as 0. The “Hepatotoxicity (granulomatous hepatitis)” value in data set [9] is 0. Moreover, the “Hepatotoxicity (choleostasis)” value in data set [10] worked out at 1. For the same compound, the “Hepatotoxicity (malignant tumour)” value in data set [11] was determined as 0. For the same compound, in [12], the “Hepatotoxicity (cirrhosis)” value stood at 0. Moreover, in data set [13], the “Hepatotoxicity (time to onset)” value was less than 3 months. In addition, in [14], the “Hepatotoxicity (steatosis)” value was 1. For the same compound, the “Hepatotoxicity (cytolytic)” value in data set [15] is given as 0.
With `O=C1CN=C(c2ccccc2)c2c(sc3c2CCCC3)N1` [BENTAZEPAM], the “Hepatotoxicity (acute)” value in [1] came out at 2; in [2], 0%. The “Hepatotoxicity (chronic liver disease)” value in [3] is listed as 3. Also, the “Hepatotoxicity (moderate)” value in data set [4] was 0%; in [8], 1. For the same compound, the “Hepatotoxicity (association with vascular disease)” value in data set [5] is 0. For the same compound, the “Hepatotoxicity (severe hepatitis)” value in data set [6] stood at 0. The “Hepatotoxicity (benign tumour)” value in data set [7] stood at 0. The “Hepatotoxicity (granulomatous hepatitis)” value in data set [9] stood at 0. In addition, the “Hepatotoxicity (choleostasis)” value in data set [10] came to 0. Also, the “Hepatotoxicity (malignant tumour)” value in data set [11] stood at 0. Moreover, the “Hepatotoxicity (cirrhosis)” value in data set [12] is listed as 1. Also, in [13], the “Hepatotoxicity (time to onset)” value is 1 month - 6 months. Also, the “Hepatotoxicity (steatosis)” value in data set [14] was found to be 0. Besides, the “Hepatotoxicity (cytolytic)” value in data set [15] is given as 2.
Take `FCOC(C(F)(F)F)C(F)(F)F` [SEVOFLURANE]: the results for the “Hepatotoxicity (acute)” value in data set [1] and in data set [2] were 6 and 0%, respectively. Besides, in data set [3], the “Hepatotoxicity (chronic liver disease)” value is 0. Also, the figures for the “Hepatotoxicity (moderate)” value in [4] and in data set [8] were 40% and 4, respectively. Moreover, in data set [5], the “Hepatotoxicity (association with vascular disease)” value was found to be 0. Besides, in data set [6], the “Hepatotoxicity (severe hepatitis)” value turned out to be 2. Also, the “Hepatotoxicity (benign tumour)” value in data set [7] amounted to 0. The “Hepatotoxicity (granulomatous hepatitis)” value in [9] is 0. The “Hepatotoxicity (choleostasis)” value in data set [10] turned out to be 0. The “Hepatotoxicity (malignant tumour)” value in data set [11] amounted to 0. In addition, the “Hepatotoxicity (cirrhosis)” value in data set [12] turned out to be 0. For the same compound, the “Hepatotoxicity (time to onset)” value in data set [13] stood at 1 day - 11 days. Also, the “Hepatotoxicity (steatosis)” value in data set [14] was 0. Moreover, the “Hepatotoxicity (cytolytic)” value in [15] was determined as 6.
On to `Cc1c(C(C)C)c(=O)n(-c2ccccc2)n1C` [PROPYPHENAZONE], for which the figures for the “Hepatotoxicity (acute)” value in data set [1] and in data set [2] were 3 and 0%, respectively. The “Hepatotoxicity (chronic liver disease)” value in data set [3] is on record as 0. The “Hepatotoxicity (moderate)” value in [4] is listed as 0%; in data set [8], 0. Moreover, the “Hepatotoxicity (association with vascular disease)” value in [5] worked out at 0. Besides, the “Hepatotoxicity (severe hepatitis)” value in [6] was 0. Also, in data set [7], the “Hepatotoxicity (benign tumour)” value is 0. For the same compound, the “Hepatotoxicity (granulomatous hepatitis)” value in data set [9] is 2. For the same compound, in data set [10], the “Hepatotoxicity (choleostasis)” value turned out to be 0. Moreover, the “Hepatotoxicity (malignant tumour)” value in data set [11] is 0. Moreover, the “Hepatotoxicity (cirrhosis)” value in [12] turned out to be 0. In data set [13], the “Hepatotoxicity (time to onset)” value was 2 days - 2 years. In addition, the “Hepatotoxicity (steatosis)” value in [14] is 0. Also, in data set [15], the “Hepatotoxicity (cytolytic)” value was found to be 1.

The values above are taken from ChEMBL document CHEMBL3137667, “[Drug-induced liver injury; fourteenth updated edition of the bibliographic database of liver injuries and related drugs]” (Gastroenterol Clin Biol, 2004).
